Experimental data from patent publication US9993570B2, “Radiolabeled tracers for poly (ADP-ribose) polymerase-1 (PARP-1), methods and uses therefor” (Washington University, priority 2014, dated 2018).
Entries after “also recorded” stand apart in the source; their conditions may differ.

Columns and labels:
[1] = system: MDA-MB-436 tumors; assay: microPET imaging with [18F]12, MDA-MB-436 xenograft tumors; format: in vivo, mice; conditions: baseline, 0-60 min post-tracer injection
Description: (§1) This example illustrates the visualization of tumor tissue in microPET in mice. MDA-MB-436 human breast cancer xenograft tumors in immune-deficient mice were visualized by PET using [^18F]12.
MDA-MB-436 and MDA-MB-231 human breast cancer cells were maintained in cell culture under standard conditions with 5% CO2 atmosphere using Eagle's minimum essential medium (with Earle's balanced salt solution and 2 mM L-glutamine) supplemented with 2 mM E-glutamine, 1 mM sodium pyruvate, 0.1 mM non-essential amino acids 2% vitamins for MEM, and 5% fetal bovine serum. Cells in exponential growth were trypsinized and harvested for tumor implantation. After counting, cells were re-suspended in ice-cold 1:1 Matrigel and PBS to give the desired concentration and held on ice.
Mature female athymic nu/nu mice from Charles River Laboratories are allowed to acclimate in an AALAC accredited housing facility for at least 1 week prior to tumor implantation for these serial imaging studies. Female nu/nu mice were implanted in the mammary fat pads (near the auxiliary lymph nodes) with ˜8×10^6 MDA-MB-436 breast cancer cells in ˜100 μL of 1:1 Matrigel:PBS. Imaging studies were conducted 2-3 weeks post implantation.
(§2) Tumor-bearing mice were placed in an induction chamber containing ˜2% isoflurane/oxygen and then secured to a custom double bed for placement of tail vein catheters; anesthesia was maintained via nose-cone at ˜1% isoflurane/oxygen for the dynamic imaging procedure. The mice were injected with 150-200 μCi of [^18F]12 and scanned for 0-60 min using Focus 220 and Inveon PET/CT scanners. The standard uptake values (SUVs) were generated from manually drawn regions of interests for tumors and surrounding ‘background’ tissue. Visualization of specific uptake was determined by comparison of baseline scans with images acquired by tracer injection 20 minutes after pre-treatment with the blocking agents olaparib (50 mg/kg, IP) or 12 (1 mg/kg, IP).

[2] = system: MDA-MB-231 tumors; assay: microPET imaging with [18F]12, MDA-MB-231 tumors; format: in vivo, mice; conditions: baseline, 60 minute dynamic scan
Description: as §1, §2
This example illustrates uptake of Compound 12 ([^18F]WC-4-138) in mice. Mature female athymic nude mice (Charles River Laboratories) were implanted with 10^6 SCC1 cells or 10^7 MDA-MB-231 cells into the mammary fat pads. Mice bearing SCC1 tumors were imaged at 5 weeks and mice bearing MDA-MB-231 cells were imaged at 2.5 weeks after implant. Mice were anesthetized with 2% isoflurane/oxygen and maintained at 1% isoflurane/oxygen via nose cone throughout the imaging procedure. Whole animal microCT images were acquired on an Inveon PET/CT scanner. The mice were injected via tail vein with 11.36±0.5 MBq (307±13 μCi) of [^18F]WC(4)-138 and underwent a 60 minute dynamic scan using Focus 220 or Inveon PET/CT scanners. The microPET and microCT images were coregistered using Integrated Research Workflow software (Siemens). Regions of interest were drawn over tumors to determine time activity curves. For drug treatment studies, animals reached intraperitoneal injections of 50 mg/kg olaparib or iniparib 30 minutes before imaging. Mice were imaged at baseline, or 30 minutes after IP injection of olaparib or iniparib. Arrows indicate location of tumors as identified on CT.
In FIG. 8, mice were imaged at baseline, or 30 minutes after IP injection of olaparib or iniparib. (A) The percent of injected dose per ml was calculated for each MDA/MB-231 tumor at baseline or after drug treatment. […] Tracer uptake was unchanged in iniparib-treated mice (p=0.1098 as determined by a paired t test, n=6 tumors).

[3] = system: head and neck cell lines SCC1 and SCC25; assay: [18F]WC-4-138 uptake in cell culture, head and neck lines; format: cell-based; conditions: SCC1 and SCC25, incubation 5, 30 or 60 minutes, normalized to protein
Description: In these experiments, the head and neck squamous cell carcinoma lines SCC1, SCC15, and SCC25 (ATCC) were propagated in Dulbecco's Modified Eagle's Medium (DMEM, Gibco) supplemented with 10% Fetal Bovine Serum (FBS, Gibco), Penicillin-Streptomycin (P/S, Gibco), and 100 ng/ml hydrocortisone (Sigma-Aldrich). The small cell lung cancer lines NCI-h69 and NCI-h82 (ATCC) were propagated m RPMI Medium (Gibco) supplemented with 10% FBS and 1% P/S. The human breast cancer cell line MDA-MB-231 (ATCC) was propagated in Eagle's Minimum Essential Medium (Gibco) supplemented with 5% FBS, 2% Vitamins for MEM (Gibco), 1% 200 mM L-glutamine (Gibco), 1% 10 mM Non-Essential Amino Acid (NEAA, Gibco).
For each experimental replicate, approximately 1 μCi of [^18F]WC-4-138 was diluted in 1 ml of cell culture medium and added to 10^6 cells. After 5, 30, or 60 minutes, the medium was collected and cells were washed twice in 0.7 ml Phosphate Buffered Saline (PBS, Gibco). Adherent cells were collected by scraping the cell culture dish and transferring to a microfuge tube. Radioactivity was measured in the collected medium, PBS, or cell pellets. Protein from the cell pellet was quantified using a […]. All data were decay-corrected and normalized to total protein quantity in the cell pellet. For drug treatment studies, cells were incubated with 10 μM Olaparib or Iniparib twenty-hours prior to incubation with [^18F]WC-4-138.
The head and neck cell lines SCC1 and SCC25 constitutively take up small amounts of tracer, registering as 0.001-0.002 μCi/μg in the cell pellet (FIG. 5A). […] Radioactivity was measured in head and neck squamous cell cancer (HNSCC) lines (SCC1 and SCC25) or small cell lung cancer (SCLC) lines (NCI-h69 and NCI-h82) after incubation with [^18F]WC-4-138 for 5, 30, or 60 minutes (n=3 at each time point). […] PARP activity was measured in HNSCC or lung SCLC cells. (FIG. 5C-D) [^18F]WC-4-138 uptake was measured in HNSCC cell lines treated with olaparib or iniparib. […]

For `O=C1NCCn2c(-c3ccc(OCC[18F])cc3)nc3cccc1c32` [[^18F]12], the “[18F]12 uptake in MDA-MB-436 tumors (microPET)” value [1] was “increased uptake that was distinguishable from background; also recorded: progressively accumulated in the tumor; also recorded: accumulation of the radioactivity in these tumors”, the “tracer uptake in MDA-MB-231 tumors (microPET images)” value [2] was “abundantly taken up in tumors” and the “tracer uptake in the cell pellet” value [3] was 0.001-0.002 μCi/μg.
